Measured values reported in US11401264B2, “Heterocyclic compound” (Orizuru Therapeutics, Inc., priority 2018, dated 2022).

Test system: cardiomyocytes from double knock-in human iPS cell lines (mCherry at TNNI3 locus)
Assay: Experimental Example 1: mCherry (TNNI3 reporter) immunostaining measured by high contents screening
Format: cell-based
Design: key to average fluorescent intensity (at 30 μM): —: The symbol in Table 2 means that the average fluorescent intensity cannot be evaluated due to cell decrease
Conditions: read on 8th day, Alexa 647 anti-mCherry, control well 797; for average fluorescent intensity (at 1 μM): test compound 1 μM added on 3rd and 6th culture days; for average fluorescent intensity (at 30 μM): test compound 30 μM added on 3rd and 6th culture days
Method: For detection of cardiomyocyte maturation, double knock-in human iPS cell lines, in which reporter protein sequences, EmGFP (Sequence Number 1) and mCherry (Sequence Number 2) were inserted into gene loci for TNNI1 and TNNI3, respectively, were prepared (the human iPS cells were prepared from episomal vector (loaded gene; OCT3/4, KLF4, SOX2, L-MYC, LIN28, mouse p53DD) using PBMC (LP_167, Sample ID: 20130318) purchased from CTL (reference literature; Okita K, et al. Stem Cells. 2012 Nov. 29. doi: 10.1002/stem.1293)).
The maintenance culture of the above-mentioned reporter iPS cell lines was carried out by a conventional method (Okita K, et al. Stem Cells. 2012 Nov. 29. doi: 10.1002/stem.1293).
For differentiation induction into cardiomyocytes, the reporter iPS cell lines were treated with 0.5×TrypLE select (Life Technologies, diluted in 1/2 with 0.5 mM EDTA/PBS) for 4 to 5 minutes, and the cells were exfoliated using a cell scraper (IWAKI), and then dissociated into the single cell by pipetting. The medium was removed by centrifugation (1,000 rpm, 5 min), and the obtained cells were seeded on a bioreactor (ABLE) by 1×10^7 cells per 30 mL of the bioreactor, and then cultured in a medium prepared by adding 1% L-glutamine, transferrin 150 μg/mL, ascorbic acid 50 μg/mL (Sigma), monothioglycerol 4×10^−4 M, 10 μM Rock inhibitor (Y-27632), 2 ng/mL BMP4 (R&D) and 0.5% Matrigel (Growth Factor Reduced) to a medium after removal of solution C from StemFit AK02 (AJINOMOTO AK02, 400 mL of solution A and 100 mL of B solution, total 500 mL), at 37° C., under 5% oxygen condition (55 rpm, stirred suspension culture method) to form embryoid bodies (0 day).
Next day (1st day), 9 μL (final concentration 3 ng/mL) of 10 μg/mL activin A, 15 μL (final concentration 5 ng/mL) of 10 μg/mL bFGF and […] (final concentration 10 ng/mL) of 10 μg/mL BMP4 were added to the bioreactor, and the cells were cultured at 37° C. for additional 2 days, under 5% oxygen condition.
Then (3rd day), the obtained embryoid bodies were collected in a 50 mL centrifuge tube, and then subjected to centrifugation (200 g, 1 min). The medium was removed, and the embryoid bodies were cultured in a medium prepared by adding 1% L-glutamine, transferrin 150 μg/mL, ascorbic acid 50 μg/mL (Sigma), monothioglycerol 4×10^−4 M, 10 ng/mL VEGF, 1 μM IWP-3, 0.6 μM dorsomorphin and 5.4 μM SB431542 to a medium after removal of solution C from StemFit AK02 (AJINOMOTO AK02, 400 mL of solution A and 100 mL of B solution, total 500 mL), at 37° C. for 3 days, under 5% oxygen condition (55 rpm, stirred suspension culture method).
Then (6th day), the bioreactor was left to stand to precipitate the embryoid bodies, and 80 to 90% of the medium was removed. A medium prepared by adding 1% L-glutamine, transferrin 150 μg/mL, ascorbic acid 50 μg/mL (Sigma), monothioglycerol […] and 5 ng/mL VEGF to a medium after removal of solution C from StemFit AK02 (AJINOMOTO AK02, 400 mL of solution A and 100 mL of B solution, total 500 mL) was added to the bioreactor so that the total volume became 30 mL, and the embryoid bodies were cultured for 8 days, at 37° C., under 5% oxygen condition (55 rpm, stirred suspension culture method). During the culture, the medium was replaced with a medium under the same conditions every 2 to 3 days.
14th Day after the start of the differentiation induction, the embryoid bodies were treated with 2 mg/mL collagenase type I (Sigma) for 2 hr, and then with 0.25% trypsin/EDTA (Invitrogen) for 10 min. 50% FBS/IMDM (Thermo Fisher Science) was added thereto, and the embryoid bodies were dissociated into the single cell by pipetting, and then subjected to centrifugation (1,000 rpm, 5 minutes). […]

Compound	average fluorescent intensity (at 1 μM)	average fluorescent intensity (at 30 μM)
O=C1c2ccc(N3CCCCC3)cc2CN1c1ccc2[nH]c(-c3ccccc3)nc2c1 [Example 1, 2-(2-phenyl-1H-benzimidazol-5-yl)-5-(piperidin-1-yl)isoindolin-1-one]	1098	—
O=C1c2ccc(N3CCCCC3)cc2CN1c1ccc2[nH]c(Cc3ccccc3)nc2c1 [Example 2, 2-(2-benzyl-1H-benzimidazol-5-yl)-5-(piperidin-1-yl)isoindolin-1-one]	943	1073
O=C1c2ccc(N3CCCCC3)cc2CN1c1ccc2[nH]c(-c3ccc(OCc4ccccc4)cc3)nc2c1 [Example 3, 2-(2-(4-(benzyloxy)phenyl)-1H-benzimidazol-5-yl)-5-(piperidin-1-yl)isoindolin-1-one]	933	1441
COC(=O)COc1ccc(-c2nc3cc(N4Cc5cc(N6CCCCC6)ccc5C4=O)ccc3[nH]2)cc1 [Example 5, methyl (4-(5-(l-oxo-5-(piperidin-1-yl)-1,3-dihydro-2H-isoindol-2-yl)-1H-benzimidazol-2-yl)phenoxy)acetate]	1078	—
O=C(O)COc1ccc(-c2nc3cc(N4Cc5cc(N6CCCCC6)ccc5C4=O)ccc3[nH]2)cc1 [Example 6, (4-(5-(l-oxo-5-(piperidin-1-yl)-1,3-dihydro-2H-isoindol-2-yl)-1H-benzimidazol-2-yl)phenoxy)acetic acid]	974	987
COc1ccc(-c2nc3cc(N4Cc5ccccc5C4=O)ccc3[nH]2)cc1 [Example 7, 2-(2-(4-methoxyphenyl)-1H-benzimidazol-5-yl)isoindolin-1-one]	859	1631
O=C(COc1ccc(-c2nc3cc(N4Cc5cc(N6CCCCC6)ccc5C4=O)ccc3[nH]2)cc1)NC/C=C/CCc1ccccc1 [Example 9, 2-(4-(5-(1-oxo-5-(piperidin-1-yl)-1,3-dihydro-2H-isoindol-2-yl)-1H-benzimidazol-2-yl)phenoxy)-N-((2E)-5-phenylpent-2-en-1-yl)acetamide]	948	—
O=C(COc1ccc(-c2nc3cc(N4Cc5cc(N6CCCCC6)ccc5C4=O)ccc3[nH]2)cc1)NCCNc1cccc(F)c1 [Example 10, N-(2-((3-fluorophenyl)amino)ethyl)-2-(4-(5-(1-oxo-5-(piperidin-1-yl)-1,3-dihydro-2H-isoindol-2-yl)-1H-benzimidazol-2-yl)phenoxy)acetamide]	1032	—
CN(CCc1ccccc1)C(=O)CNC(=O)COc1ccc(-c2nc3cc(N4Cc5cc(N6CCCCC6)ccc5C4=O)ccc3[nH]2)cc1 [Example 11, N-methyl-N^~2^~-((4-(5-(1-oxo-5-(piperidin-1-yl)-1,3-dihydro-2H-isoindol-2-yl)-1H-benzimidazol-2-yl)phenoxy)acetyl)-N-(2-phenylethyl)glycinamide]	1182	—
O=C(COc1ccc(-c2nc3cc(N4Cc5cc(N6CCCCC6)ccc5C4=O)ccc3[nH]2)cc1)NCCCc1ccncc1 [Example 12, 2-(4-(5-(1-oxo-5-(piperidin-1-yl)-1,3-dihydro-2H-isoindol-2-yl)-1H-benzimidazol-2-yl)phenoxy)-N-(3-(pyridin-4-yl)propyl)acetamide]	1675	1226
CN(C)C(=O)C(NC(=O)COc1ccc(-c2nc3cc(N4Cc5cc(N6CCCCC6)ccc5C4=O)ccc3[nH]2)cc1)c1ccccc1 (stereo not shown) [Example 13, N,N-dimethyl-2-(((4-(5-(1-oxo-5-(piperidin-1-yl)-1,3-dihydro-2H-isoindol-2-yl)-1H-benzimidazol-2-yl)phenoxy)acetyl)amino)-2-phenylacetamide]	1212	—
CN(C(=O)COc1ccc(-c2nc3cc(N4Cc5cc(N6CCCCC6)ccc5C4=O)ccc3[nH]2)cc1)C1CCOCC1 [Example 14, N-methyl-2-(4-(5-(1-oxo-5-(piperidin-1-yl)-1,3-dihydro-2H-isoindol-2-yl)-1H-benzimidazol-2-yl)phenoxy)-N-(tetrahydro-2H-pyran-4-yl)acetamide]	2143	2012
CC1(O)CCN(C(=O)COc2ccc(-c3nc4cc(N5Cc6cc(N7CCCCC7)ccc6C5=O)ccc4[nH]3)cc2)CC1 [Example 15, 2-(2-(4-(2-(4-hydroxy-4-methylpiperidin-1-yl)-2-oxoethoxy)phenyl)-1H-benzimidazol-5-yl)-5-(piperidin-1-yl)isoindolin-1-one]	1701	2697
O=C(COc1ccc(-c2nc3cc(N4Cc5cc(N6CCCCC6)ccc5C4=O)ccc3[nH]2)cc1)N1CCS(=O)(=O)C1 [Example 16]	1366	3604
CC1(NC(=O)COc2ccc(-c3nc4cc(N5Cc6cc(N7CCCCC7)ccc6C5=O)ccc4[nH]3)cc2)CC1 [Example 18, N-(1-methylcyclopropyl)-2-(4-(5-(1-oxo-5-(piperidin-1-yl)-1,3-dihydro-2H-isoindol-2-yl)-1H-benzimidazol-2-yl)phenoxy)acetamide]	1272	1704
O=C(COc1ccc(-c2nc3cc(N4Cc5cc(N6CCCCC6)ccc5C4=O)ccc3[nH]2)cc1)Nc1ccc(F)cc1 [Example 19, N-(4-fluorophenyl)-2-(4-(5-(1-oxo-5-(piperidin-1-yl)-1,3-dihydro-2H-isoindol-2-yl)-1H-benzimidazol-2-yl)phenoxy)acetamide]	1292	860
O=C(COc1ccc(-c2nc3cc(N4Cc5cc(N6CCCCC6)ccc5C4=O)ccc3[nH]2)cc1)Nc1ccccc1F [Example 20, N-(2-fluorophenyl)-2-(4-(5-(1-oxo-5-(piperidin-1-yl)-1,3-dihydro-2H-isoindol-2-yl)-1H-benzimidazol-2-yl)phenoxy)acetamide]	1685	
O=C(COc1ccc(-c2nc3cc(N4Cc5cc(N6CCCCC6)ccc5C4=O)ccc3[nH]2)cc1)Nc1ccc(Cl)cc1 [Example 21, N-(4-chlorophenyl)-2-(4-(5-(1-oxo-5-(piperidin-1-yl)-1,3-dihydro-2H-isoindol-2-yl)-1H-benzimidazol-2-yl)phenoxy)acetamide]	1120	—
Cc1ccc(NC(=O)COc2ccc(-c3nc4cc(N5Cc6cc(N7CCCCC7)ccc6C5=O)ccc4[nH]3)cc2)cc1 [Example 22, N-(4-methylphenyl)-2-(4-(5-(1-oxo-5-(piperidin-1-yl)-1,3-dihydro-2H-isoindol-2-yl)-1H-benzimidazol-2-yl)phenoxy)acetamide]	1211	—
